Here are results for 1 compound from PMC9396064, “The enzyme pseudooxynicotine amine oxidase from Pseudomonas putida S16 is not an oxidase, but a dehydrogenase” (The Journal of Biological Chemistry, 2022).

The structures appear in SMILES notation.

The target of this assay is T1, Pnao (pseudooxynicotine amine oxidase) (Pseudomonas putida, UniProt F8G0P1).
T1 construct: signal peptide removed (from Ala45 onward); N-terminal His-SUMO tag cleaved with ULP1; pET28a, E. coli BL21 (DE3); FAD-containing homodimer
T1 sequence (F8G0P1 45-496): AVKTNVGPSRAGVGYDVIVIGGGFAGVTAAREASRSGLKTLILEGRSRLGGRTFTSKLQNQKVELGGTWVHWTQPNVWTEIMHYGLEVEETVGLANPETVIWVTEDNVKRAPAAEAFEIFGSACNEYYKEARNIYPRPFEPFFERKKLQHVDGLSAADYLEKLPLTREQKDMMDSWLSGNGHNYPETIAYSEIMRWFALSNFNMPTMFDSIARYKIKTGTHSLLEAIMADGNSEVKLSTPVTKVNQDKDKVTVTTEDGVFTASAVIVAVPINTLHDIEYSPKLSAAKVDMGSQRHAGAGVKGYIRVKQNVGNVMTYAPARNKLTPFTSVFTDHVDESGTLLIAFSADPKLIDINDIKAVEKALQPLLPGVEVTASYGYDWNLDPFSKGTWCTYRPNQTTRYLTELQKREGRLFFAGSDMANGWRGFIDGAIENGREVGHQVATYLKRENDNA
Kind of assay: X-ray crystal structure, […] Å. It is filed as binding. Particulars: crystals pH 9; oxidized FAD at the active site.

Regarding `Cc1cc2nc3c(=O)[nH]c(=O)nc-3n(C[C@H](O)[C@H](O)[C@H](O)COP(=O)(O)OP(=O)(O)OC[C@H]3O[C@@H](n4cnc5c(N)ncnc54)[C@H](O)[C@@H]3O)c2cc1C` [flavin adenine dinucleotide], the “X-ray crystal structure, 2.60 Å” value is listed as “Our structure of Pnao contained oxidized FAD”.
